Assay [1] addresses T1, ERα (Homo sapiens, UniProt P03372).
T1 sequence (P03372 1-595): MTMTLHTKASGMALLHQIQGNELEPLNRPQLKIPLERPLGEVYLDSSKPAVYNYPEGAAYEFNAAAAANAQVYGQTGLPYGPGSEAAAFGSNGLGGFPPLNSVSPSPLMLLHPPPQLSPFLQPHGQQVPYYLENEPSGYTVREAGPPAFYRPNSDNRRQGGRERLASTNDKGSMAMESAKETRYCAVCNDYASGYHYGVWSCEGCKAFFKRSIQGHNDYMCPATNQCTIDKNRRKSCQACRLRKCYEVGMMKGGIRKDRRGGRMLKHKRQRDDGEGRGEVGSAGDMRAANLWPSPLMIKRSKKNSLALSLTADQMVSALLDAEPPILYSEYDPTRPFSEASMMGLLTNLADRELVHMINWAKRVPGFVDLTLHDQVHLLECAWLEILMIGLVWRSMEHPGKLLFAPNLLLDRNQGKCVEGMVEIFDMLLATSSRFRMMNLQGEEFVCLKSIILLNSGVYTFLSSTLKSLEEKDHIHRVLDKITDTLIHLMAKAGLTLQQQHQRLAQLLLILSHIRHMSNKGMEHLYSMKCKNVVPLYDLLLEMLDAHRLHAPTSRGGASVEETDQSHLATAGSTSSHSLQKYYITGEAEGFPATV
In words: ERE luciferase reporter gene assay in T47D-KBluc cells (target engagement). The assay is classed as cell-based. More on the design: T47D human breast cancer cells stably transfected with estrogen responsive element/promoter/luciferase reporter gene; host or cells: T47D-KBluc cells. The conditions noted are these: 10% FBS, 24 hours, Table 2 VHL centric PROTACs, read-out: IC50. Summed up:
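PROTACs were tested at 12 concentrations from 300 nM down to 2 pM in 3-fold steps for 24 h on T47D-KBluc cells with a stable ERE-driven luciferase. Medium was RPMI with 10% FBS, measured at 10 pM estrogen. IC50 came from luminescence after lysis, in duplicate.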

Assay [2] addresses T1, ERα. In words: Estrogen receptor-alpha (ERα) degradation assay in MCF-7 cells using western blot. The assay is classed as cell-based. More on the design: assessed for their activity in degrading ERα in MCF-7 cells via western blot; endogenous in cells; host or cells: MCF7 cells. The conditions noted are these: ER-alpha degradation, MCF7 cells, 3 days of incubation. Here is the method:
Compounds prepared in this application were also analyzed for the degradation of ERα in MCF7 and T47D cells.
Estrogen Receptor-Alpha (ERα) Degradation Assay in MCF-7 Cells Using Western Blot Method for Table 4.
The exemplary novel ERα degraders were assessed for their activity in degrading ERα in MCF-7 cells via western blot. The assay was carried out in the presence of 10% fetal bovine serum (FBS) or high percentage of human or mouse serum.
MCF7 cells were grown in DMEM/F12 with 10% fetal bovine serum and seeded at 24,000 cells per well in 100 μl into 96-well clear tissue culture plates. The following day, the cells were treated with PROTACs in a […] concentration curve with 100 nM being the top concentration and serial dilutions to make the other concentrations (30 nM, 10 nM, 3 nM, 1 nM, and 0.3 nM). At all concentrations, 0.01% DMSO is the final concentration in the well. The following day, the plates are aspirated, washed with 50 μl of cold PBS. The cells are lysed with 50 μl/well 4° C. Cell Lysis Buffer (Catalog #9803; Cell Signaling Technology, Danvers, Mass.) (20 mM Tris-HCL (pH 7.5), 150 mM NaCl, 1 mM […], 1 mM EGTA, 1% Triton, 2.5 mM sodium pyrophosphate, 1 mM B-glycerophosphate, 1 mM sodium vanadate, 1 ug/ml leupeptin). Lysates were clarified at 16,000×g for 10 minutes, and 2 μg of protein was subjected to SDS-PAGE analysis and followed by immunoblotting according to standard protocols. The antibodies used were ERα (Cell Signaling Technologies Catalog #8644), and Tubulin (Sigma Catalog #T9026; St. Louis, Mo.). Detection reagents were Clarity Western ECL substrate (Bio-Rad Catalog #170-5060; Hercules, Calif.).
Alternatively, MCF7 cells were grown in DMEM/F12 with 10% fetal bovine serum and seeded at 24,000 cells per well in 500 μl in 24-well clear tissue culture plates. The following day, the cells were treated with PROTACs in a 5-point concentration curve (100 nM, 33 nM, 11 nM, 3.7 nM, and 1.2 nM) in the presence of 0.01% DMSO. After 72 hours, the wells are aspirated and washed with 500 μl of PBS. The cells are lysed with 100 μl/well 4° C. Cell Lysis Buffer (Catalog #9803; Cell Signaling Technology, Danvers, M A) (20 mM Tris-HCL (pH 7.5), 150 mM NaCl, 1 mM Na2EDTA, 1 mM EGTA, 1% Triton, 2.5 mM sodium pyrophosphate, 1 mM B-glycerophosphate, 1 mM sodium vanadate, 1 ug/ml leupeptin). Lysates were clarified at 16,000×g for 10 minutes, and 2 μg of protein was subjected to SDS-PAGE analysis and followed by immunoblotting according to standard protocols. The antibodies used were ER(X (Cell Signaling Technologies Catalog #8644), and Tubulin (Sigma Catalog #T9026; St. Louis, Mo.). Detection reagents were Clarity Western ECL substrate (Bio-Rad Catalog #170-5060; Hercules, Calif.).

Data on ten molecules can be found in patent publication US11384063B2, “Modulators of estrogen receptor proteolysis and associated methods of use” (Arvinas Operations, Inc., priority 2017, dated 2022).

Molecules are shown by their SMILES. Some results are limits rather than exact numbers.

Take `Cc1ncoc1-c1ccc([C@H](C)NC(=O)[C@@H]2C[C@@H](O)CN2C(=O)[C@@H](NC(=O)COCCOCCOCCOc2ccc(Oc3c(-c4ccc(Br)cc4)sc4cc(O)ccc34)cc2)C(C)(C)C)cc1` [Compound 127, (2S,4R)-1-((S)-14-(4-(2-(4-bromophenyl)-6-hydroxybenzo[b]thiophen-3-yloxy)phenoxy)-2-tert-butyl-4-oxo-6,9,12-trioxa-3-azatetradecane)-4-hydroxy-N-((S)-1-(4-(4-methyloxazol-5-yl)phenyl)ethyl)pyrrolidine-2-carboxamide]: on ERα [1], the IC50 was 0.2 nM. Besides, on ERα [2], the DC50 was under 1 nM and the Dmax was over 75%.

On to `Cc1ncsc1-c1ccc([C@H](C)NC(=O)[C@@H]2C[C@@H](O)CN2C(=O)[C@@H](NC(=O)COCCOCCN(C)CCOc2ccc(Oc3c(-c4ccc(F)cc4)sc4cc(O)ccc34)cc2)C(C)(C)C)cc1` [Compound 128, (2S,4R)-1-[(2S)-2-[1-(4[[2-(4-fluorophenyl)-6-hydroxy-1-benzothiophen-3-yl]oxy]phenyl)-4-methyl-1,7,10-trioxa-4-azadodecan-12-amido]-3,3-dimethylbutanoyl]-4-hydroxy-N-[(1S)-1-[4-(4-methyl-1,3-thiazol-5-yl)phenyl]ethyl]pyrrolidine-2-carboxamide], for which, on ERα [1], the IC50 is 0.3 nM. On ERα [2], the DC50 was under 1 nM and the Dmax was over 75%.

On to `C[C@H](NC(=O)[C@@H]1C[C@@H](O)CN1C(=O)[C@@H](NC(=O)COCCOCCN(C)CCOc1ccc(Oc2c(-c3ccc(F)cc3)sc3cc(O)ccc23)cc1)C(C)(C)C)c1ccc(Cl)cc1` [Compound 129], for which the IC50 at ERα [1] came to 1.4 nM. On ERα [2], this molecule yielded a DC50 of 1 to 10 nM and a Dmax of over 75%.

On to `Cc1ncsc1-c1ccc(CNC(=O)[C@@H]2C[C@@H](O)CN2C(=O)[C@@H](NC(=O)CCc2cccc(-c3ccn(CCOc4ccc(Oc5c(-c6ccc(F)cc6)sc6cc(O)ccc56)cc4)n3)c2)C(C)(C)C)cc1` [Compound 130, (2S,4R)-1-[(2S)-2-[3-(3-[1-[2-(4-[[2-(4-fluorophenyl)-6-hydroxy-1-benzothiophen-3-yl]oxy]phenoxy)ethyl]-1H-pyrazol-3-yl]phenyl)propanamido]-3,3-dimethylbutanoyl]-4-hydroxy-N-[[4-(4-methyl-1,3-thiazol-5-yl)phenyl]methyl]pyrrolidine-2-carboxamide], for which the IC50 on ERα [1] is 3.5 nM. Besides, on ERα [2], the DC50 was 1 to 10 nM and the Dmax was over 75%.

Take `Cc1ncsc1-c1ccc(CNC(=O)[C@@H]2C[C@@H](O)CN2C(=O)[C@@H](NC(=O)COCCCCOc2ccc(-c3ccc(Oc4c(-c5ccc(F)cc5)sc5cc(O)ccc45)cc3)nc2)C(C)(C)C)cc1` [Compound 133, (2S,4R)-1-[(2S)-2-[2-(4-[[6-(4-[[2-(4-fluorophenyl)-6-hydroxy-1-benzothiophen-3-yl]oxy]phenyl)pyridin-3-yl]oxy]butoxy)acetamido]-3,3-dimethylbutanoyl]-4-hydroxy-N-[[4-(4-methyl-1,3-thiazol-5-yl)phenyl]methyl]pyrrolidine-2-carboxamide]: the IC50 at ERα [1] worked out at 3.7 nM. Also, on ERα [2], the DC50 lay in the range of 1 to 10 nM and the Dmax is over 75%.

For `Cc1ncsc1-c1ccc(CNC(=O)[C@@H]2C[C@@H](O)CN2C(=O)[C@@H](NC(=O)COCCOCCn2ccc(-c3ccc(Oc4c(-c5ccc(F)cc5)sc5cc(O)ccc45)cc3)cc2=O)C(C)(C)C)cc1` [Compound 134], the IC50 at ERα [1] was 2.6 nM. On ERα [2], this molecule came in with a DC50 of 1 to 10 nM and a Dmax of over 75%.

Take `Cc1ncsc1-c1ccc(CNC(=O)[C@@H]2C[C@@H](O)CN2C(=O)[C@@H](NC(=O)COCCOCCN2CCC(c3ccc(Oc4c(-c5ccc(F)cc5)sc5cc(O)ccc45)cc3)CC2)C(C)(C)C)cc1` [Compound 135, (2S,4R)-1-[(2S)-2-[2-(2-[2-[4-(4-[[2-(4-fluorophenyl)-6-hydroxy-1-benzothiophen-3-yl]oxy]phenyl)piperidin-1-yl]ethoxy]ethoxy)acetamido]-3,3-dimethylbutanoyl]-4-hydroxy-N-[[4-(4-methyl-1,3-thiazol-5-yl)phenyl]methyl]pyrrolidine-2-carboxamide]: the IC50 on ERα [1] was 0.8 nM. Also, on ERα [2], the DC50 is under 1 nM and the Dmax is over 75%.

In the case of `Cc1ncoc1-c1ccc([C@H](C)NC(=O)[C@@H]2C[C@@H](O)CN2C(=O)[C@@H](NC(=O)COCCOCCOCCOc2ccc(Oc3c(-c4ccccc4)sc4cc(O)ccc34)cc2)C(C)(C)C)cc1` [Compound 138, (2S,4R)-1-((S)-2-tert-butyl-14-(4-(6-hydroxy-2-phenylbenzo[b]thiophen-3-yloxy)phenoxy)-4-oxo-6,9,12-trioxa-3-azatetradecane)-4-hydroxy-N-((S)-1-(4-(4-methyloxazol-5-yl)phenyl)ethyl)pyrrolidine-2-carboxamide], the IC50 on ERα [1] was 0.1 nM. On ERα [2], this molecule gave a DC50 of under 1 nM and a Dmax of over 75%.

`Cc1ncsc1-c1ccc(CNC(=O)[C@@H]2C[C@@H](O)CN2C(=O)[C@@H](NC(=O)COc2cccc(CCN(C)CCOc3ccc(Oc4c(-c5ccc(F)cc5)sc5cc(O)ccc45)cc3)c2)C(C)(C)C)cc1` [Compound 139, (2S,4R)-1-[(2S)-2-[2-[3-(2-[[2-(4-[[2-(4-fluorophenyl)-6-hydroxy-1-benzothiophen-3-yl]oxy]phenoxy)ethyl](methyl)amino]ethyl)phenoxy]acetamido]-3,3-dimethylbutanoyl]-4-hydroxy-N-[[4-(4-methyl-1,3-thiazol-5-yl)phenyl]methyl]pyrrolidine-2-carboxamide]: the IC50 on ERα [1] came out at 0.6 nM. On ERα [2], the DC50 was under 1 nM and the greatest degradation seen (Dmax) was over 75%.

Regarding `Cc1ncsc1-c1ccc(CNC(=O)[C@@H]2C[C@@H](O)CN2C(=O)[C@@H](NC(=O)COCCN2CCN(CCOc3ccc(Oc4c(-c5ccc(Br)cc5)sc5cc(O)ccc45)cc3)CC2)C(C)(C)C)cc1` [Compound 140, (2S,4R)-1-[(2S)-2-[2-(2-[4-[2-(4-[[2-(4-bromophenyl)-6-hydroxy-1-benzothiophen-3-yl]oxy]phenoxy)ethyl]piperazin-1-yl]ethoxy)acetamido]-3,3-dimethylbutanoyl]-4-hydroxy-N-[[4-(4-methyl-1,3-thiazol-5-yl)phenyl]methyl]pyrrolidine-2-carboxamide], the 50% inhibitory concentration (IC50) at ERα [1] was determined as 11 nM. Besides, on ERα [2], the DC50 was 1 to 10 nM and the Dmax is over 75%.
